Laboratory results from the supplement of paper PMC4862054.

How the values were obtained:
Conditions in all cases: incubation time: 72 h
HDQ-P1 [1] = assay: normalised viability (% of control), CellTiter-Blue; higher = more viable cells (about 100 = DMSO control)
Outline: (§1)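 Compound dissolved in 5 µl medium was pre-loaded into 384-well plates, and breast cancer cell lines in 20 µl suspension were seeded on top and incubated 72 h. After adding 2.5 µl CellTiter-Blue reagent for 2 h at 37 °C, fluorescence was read at 560/590 nm. Plates were normalised to vehicle (100) and a positive kill control (0), with Z'-factor quality control. Each value is normalised viability at a single listed concentration from the series.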

MDA-MB-436 [2] = assay: as above
Outline: as §1

HCC1143 [3] = assay: as above
Outline: as §1

CAL-148 = assay: as above
Outline: as §1

MDA-MB-453 = assay: as above
Outline: as §1

DU-4475 = assay: as above
Outline: as §1

MFM-223 [4] = assay: as above
Outline: as §1

SK-BR-3 [5] = assay: as above
Outline: as §1

CAL-120 = assay: as above
Outline: as §1

MDA-MB-468 = assay: as above
Outline: as §1

MDA-MB-231 [6] = assay: as above
Outline: as §1

CAL-85-1 [7] = assay: as above
Outline: as §1

HCC1599 [8] = assay: as above
Outline: as §1

BT-549 = assay: as above
Outline: as §1

HCC1937 = assay: as above
Outline: as §1

HDQ-P1 [9] = assay: drug sensitivity score (DSS), CellTiter-Blue viability (DSS (AUC-based score)); higher = stronger viability inhibition; extreme values may be limits of the assay
Method: (§2)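 DSRT with the CellTiter-Blue (resazurin reduction) viability readout, fluorescence 560/590 nm, 72 h incubation. Plates were normalised to DMSO and benzethonium chloride controls. DSS is computed from the area under the fitted dose-response curve (5 or 9 concentrations).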

BT-474 = assay: as above
Method: as §2

MDA-MB-436 [10] = assay: as above
Method: as §2

HCC1143 [11] = assay: as above
Method: as §2

MFM-223 [12] = assay: as above
Method: as §2

SK-BR-3 [13] = assay: as above
Method: as §2

MDA-MB-231 [14] = assay: as above
Method: as §2

CAL-85-1 [15] = assay: as above
Method: as §2

HCC1599 [16] = assay: as above
Method: as §2

C[C@@H]1C[C@H]2[C@@H]3CCC4=CC(=O)C=C[C@]4(C)[C@@]3(F)[C@@H](O)C[C@]2(C)[C@@]1(O)C(=O)CO [Dexamethasone]
normalised viability [%]
Conditions | 3 nM | 10 nM | 30 nM | 100 nM | 1000 nM | 10000 nM
BT-549 | – | 93.6 | – | – | 90.3 | 93.5
CAL-85-1 [7] | 102 | – | 93.1 | 110 | – | –
CAL-120 | – | 76 | – | – | 77 | 80.1
CAL-148 | 93.6 | – | 108 | 99.2 | – | –
DU-4475 | 90 | – | 86.9 | 98.3 | – | –
HCC1143 [3] | – | 76.5 | – | – | 89.1 | 81.2
HCC1599 [8] | – | 124 | – | – | 82.1 | 86.7
HCC1937 | – | 82.5 | – | – | 100 | 78.9
HDQ-P1 [1] | 111 | – | 100 | 108 | – | –
MDA-MB-231 [6] | – | 125 | – | – | 111 | 146
MDA-MB-436 [2] | – | 127 | – | – | 89.6 | 104
MDA-MB-453 | 110 | – | 78.2 | 76.3 | – | –
MDA-MB-468 | – | 114 | – | – | 112 | 100
MFM-223 [4] | – | 93.4 | – | – | 94.2 | 87.2
SK-BR-3 [5] | – | 99.2 | – | – | 86.7 | 93

Conditions | drug sensitivity score
BT-474 | 0
CAL-85-1 [15] | 0
HCC1143 [11] | 0
HCC1599 [16] | 0
HDQ-P1 [9] | 0
MDA-MB-231 [14] | 0
MDA-MB-436 [10] | 0
MFM-223 [12] | 0
SK-BR-3 [13] | 0

O=NN(CCCl)C(=O)NC1CCCCC1 [Lomustine]
normalised viability [%]
Conditions | 3 nM | 10 nM | 30 nM | 100 nM | 1000 nM | 10000 nM
BT-549 | – | 84.4 | – | – | 86.6 | 84.6
CAL-85-1 [7] | 104 | – | 88 | 104 | – | –
CAL-120 | – | 93.9 | – | – | 91.3 | 105
CAL-148 | 100 | – | 113 | 99.4 | – | –
DU-4475 | 117 | – | 98.7 | 88.2 | – | –
HCC1143 [3] | – | 89.3 | – | – | 90.5 | 89.5
HCC1599 [8] | – | 108 | – | – | 81.4 | 117
HCC1937 | – | 92 | – | – | 90.4 | 96
HDQ-P1 [1] | 117 | – | 98.7 | 105 | – | –
MDA-MB-231 [6] | – | 110 | – | – | 100 | 95.9
MDA-MB-436 [2] | – | 108 | – | – | 95.5 | 97.7
MDA-MB-453 | 120 | – | 102 | 94.7 | – | –
MDA-MB-468 | – | 100 | – | – | 98.1 | 95.6
MFM-223 [4] | – | 84.7 | – | – | 87.9 | 54.7
SK-BR-3 [5] | – | 97.3 | – | – | 125 | 96

Conditions | drug sensitivity score
BT-474 | 0
CAL-85-1 [15] | 0
HCC1143 [11] | 0
HCC1599 [16] | 0
HDQ-P1 [9] | 0
MDA-MB-231 [14] | 0
MDA-MB-436 [10] | 0
MFM-223 [12] | 0
SK-BR-3 [13] | 0

NC(=O)c1cccc2cn(-c3ccc([C@@H]4CCCNC4)cc3)nc12 [MK-4827]
normalised viability [%]
Conditions | 3 nM | 10 nM | 30 nM | 100 nM | 1000 nM | 10000 nM
BT-549 | – | 79.1 | – | – | 93.3 | 72.4
CAL-85-1 [7] | 95.8 | – | 92 | 93.1 | – | –
CAL-120 | – | 81 | – | – | 76.9 | 71.1
CAL-148 | 97.7 | – | 98.2 | 95.8 | – | –
DU-4475 | 94.8 | – | 81.1 | 85.5 | – | –
HCC1143 [3] | – | 88.9 | – | – | 85 | 64.6
HCC1599 [8] | – | 93.4 | – | – | 116 | 93.3
HCC1937 | – | 55.2 | – | – | 70.5 | 38.3
HDQ-P1 [1] | 95.3 | – | 94.1 | 95.6 | – | –
MDA-MB-231 [6] | – | 94 | – | – | 90.7 | 62.2
MDA-MB-436 [2] | – | 84.2 | – | – | 72.4 | 65.3
MDA-MB-453 | 116 | – | 90.8 | 93.3 | – | –
MDA-MB-468 | – | 101 | – | – | 89 | 50.4
MFM-223 [4] | – | 92.4 | – | – | 96.4 | 111
SK-BR-3 [5] | – | 95.9 | – | – | 95.2 | 74.9

Conditions | drug sensitivity score
BT-474 | 0
CAL-85-1 [15] | 0
HCC1143 [11] | 3.49
HCC1599 [16] | 0
HDQ-P1 [9] | 0
MDA-MB-231 [14] | 0
MDA-MB-436 [10] | 0
MFM-223 [12] | 0
SK-BR-3 [13] | 0
